Test results from patent publication US10363239B2, “Method for inhibiting growth of cancer cells” (Pain Therapeutics, Inc., priority 2013, dated 2019).

What was measured:
[1] = tested on: small-cell lung carcinoma cells; test: Glucose deprivation-induced apoptosis markers (cleaved PARP-1, caspase-3) by Western blotting; type: cell-based, human; conditions: 1 nM; Day 3 and 4
Protocol: . Cells were washed, solubilized and the levels of apoptotic markers PARP-1 and caspase-3 (19- and 17-KDa) in the obtained cell lysates were determined by Western blotting. The density of protein bands was quantified by densitometric scanning. […] . […] N=5. *p<0.01 compared to Day 0. #p<0.01 compared to vehicle (open bars).
. The cells were washed with PBS, incubated in 0.1% fetal bovine serum (FBS) for 16 hours and incubated in glucose-free 0.1% FBS-containing medium for up to 4 days in the presence of vehicle or 1 nM Compound C0105. The cells in the entire well were collected by centrifugation. […] The protein concentrations were measured by the Bradford method.
The cells were homogenized and the obtained homogenates were centrifuged to remove nucleus and mitochondria. […] The level of apoptotic cell death was determined using Western blotting in 50 μg solubilized cell lysates with antibodies against cleaved PARP-1 (Asp^214) and caspase-3 (Asp^175), both at 1:1000 dilution. […] Bands at the relevant molecular masses of Ki67 and PCNA were quantified by densitometric scan. Membranes were stripped, washed 5× in 0.1% PBST (2 minutes each wash) and the actin content analyzed by immunoblotting using monoclonal anti-actin to illustrate even loading.

[2] = tested on: pS2152FLNA, FLNA-associated PTEN and PP2A in primary human pancreatic epithelial cells (HPEC); test: pS2152FLNA and FLNA-associated PTEN and PP2A in anti-FLNA immunoprecipitate (Western blotting); type: cell-based; conditions: 0.1-5 nM; 4 days
Protocol: The effect of contact with Compound C0105 on the levels of pS^2152FLNA and FLNA-associated phosphatases, PTEN and PP2A subclasses was determined in MiaPaCa2 and HPECs. Cells were contacted with vehicle and 0.1-5 nM Compound C0105 for 4 days. Cells were washed, solubilized and the cell lysate derived was immunoprecipitated with anti-FLNA. The levels of […] and FLNA-associated phosphatases, PTEN and PP2A subclasses in the anti-FLNA immunoprecipitate were determined by Western blotting. The density of protein bands was quantified by densitometric scan. […] Data are expressed as mean±S.E.M. of ratios (FIGS. 27C, 27E and 27G) and percentage inhibition (FIGS. 27D, 27F and 27H). […] N=4. **p<0.05, *p<0.01 compared to vehicle (open bars). […]
(§1) The cell lysates were diluted 5-fold with immunoprecipitation buffer and immunoprecipitated with anti-FLNA, -Akt, -mTOR and -ERK2 as described previously [Talbot et al., J Clin Inv 122(4):1-23 (2012); Wang et al., J Neurosci 32(29):9773-9784 (2012)]. The levels of FLNA linkages, activated phosphorylated Akt (pS^473 and pT^308), phosphorylated mTOR (pS^2448) and phosphorylated ERK2 (pY/pT) were determined in anti-FLNA, -Akt, -mTOR and -ERK2 immunoprecipitates by Western blotting with appropriate antibodies directed against PTEN, PP2A, K-RAS, ras-GAP (FLNA linkages), pS^473Akt, pT^308Akt, pS^2448mTOR and pY/pT ERK2 (activation of Akt, mTOR and ERK2).

more than 65 receptors = test: Standard binding assay on more than 65 receptors; conditions: 10 μM concentration
[3] = tested on: pS2448mTOR, pS473Akt, pY/pT-ERK2 in melanoma cells; test: Activated (phosphorylated) mTOR, Akt and ERK2 levels (immunoprecipitation, Western blotting); type: cell-based, human; conditions: 0.1-5 nM; 4 days
Protocol: (§2) FIG. 11A through FIG. 11C illustrate the effect of contact with Compound C0105 on the levels of activated (phosphorylated) mTOR (pS^2448mTOR), Akt (pS^473Akt) and ERK2 (pY/pT-ERK2) in melanoma cells. Cells were treated with vehicle and 0.1-5 nM Compound C0105 for 4 days. Cells were washed, solubilized and the resultant cell lysate was immunoprecipitated with anti-mTOR, -Akt or -ERK2. The levels of pS^2448mTOR, pS^473Akt, pY/pTERK2 in the respective anti-mTOR, -Akt, and -ERK2 immunoprecipitates were determined by Western blotting. The density of protein bands was measured by densitometric scanning. […] N=4. *p<0.01 compared to vehicle (open bars). […]
as §1

[4] = tested on: pS2448mTOR, pS473Akt, pY/pT-ERK2 in glioblastoma cells; test: as above; type: cell-based, human; conditions: 0.1-5 nM; 4 days
Protocol: as §2, with “10A” for “11A”, “10C” for “11C”, “glioblastoma” for “melanoma”, “nM” for “nM Compound”
as §1

With `CN1CCC2(CC1)NCC(=O)N2Cc1ccccc1` [Compound C0105] the “Glucose deprivation-induced cell death by cleaved PARP-1 and caspase-3” value [1] was “reduces glucose deprivation-induced cell death”, the “Phosphatase (PTEN, PP2A) associations with FLNA” value [2] was “no effect” and the pS2152FLNA level [2] was “no effect”. For the same compound, the “Binding to any of more than 65 assayed receptors” value (more than 65 receptors) was “no significant binding”, the “mTOR, Akt and ERK activation (phosphorylated mTOR, Akt and ERK)” value [3] was “robustly reduces mTOR, Akt and ERK activation” and the “mTOR, Akt and ERK activation (phosphorylated mTOR, Akt and ERK)” value [4] was “robustly reduces mTOR, Akt and ERK activation”.
